“Also recorded” adds a separate entry of the source.
Assays:
[1] = e.g. long-term ventilation, current state of knowledge, cited from earlier work
brain = assay: administration of xenon (inhalation): cerebral perfusion and oxygen supply in the brain; type: in vivo

[Xe] [xenon]
side effects ([1]; prolonged administration): no side effects
accumulation in the body ([1]; use as medicament): no accumulation
metabolites formed in the body ([1]; use as medicament): no metabolites are formed
cerebral perfusion (brain; administered xenon, available results): improvement in cerebral perfusion
oxygen supply in the brain (brain; administration of xenon or xenon-containing gases, in particular by inhalation): increased; also recorded: improved
cerebral autoregulation (brain; preliminary results): maintained or improved
vasodilator action, especially capillary vasodilator in the capillary vascular system (brain; preliminary results): acts as vasodilator

— US7235264B2, “Cerebral protection with a gas comprising xenon” (Air Liquide Deutschland GmbH, priority 2002, dated 2007)
